This note sets out measurements from US20190369111A1, “MOLECULAR KINETICS EVALUATION METHOD AND SCREENING METHOD” (Tokyo University of Science Foundation, priority 2016, published 2019).

In this experiment the target is endogenous wild-type p53 protein (Homo sapiens, UniProt P04637). Nature of the experiment: Degradation of endogenous wild-type p53 protein in HeLa cells, Western blot analysis. Format: cell-based. Also on record: endogenous in cells. On the procedure: HeLa cells were seeded in a 24-well plate at a cell density of 4×10^4 cells/well, and then cultured under conditions of 37° C. and 5 vol % CO2 for 16 hours.
Sequence of endogenous wild-type p53 protein (P04637 whole entry): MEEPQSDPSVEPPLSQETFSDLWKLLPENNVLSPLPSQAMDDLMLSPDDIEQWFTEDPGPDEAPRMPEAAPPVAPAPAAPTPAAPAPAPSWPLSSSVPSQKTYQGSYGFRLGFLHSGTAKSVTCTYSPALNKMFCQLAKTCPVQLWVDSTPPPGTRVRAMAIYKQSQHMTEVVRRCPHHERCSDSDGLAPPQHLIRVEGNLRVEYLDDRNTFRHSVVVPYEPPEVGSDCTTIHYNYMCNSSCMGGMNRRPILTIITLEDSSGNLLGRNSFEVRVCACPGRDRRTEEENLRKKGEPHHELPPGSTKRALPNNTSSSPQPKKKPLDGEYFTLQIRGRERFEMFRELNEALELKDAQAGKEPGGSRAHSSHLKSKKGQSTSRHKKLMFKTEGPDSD
After 16 hours from cell seeding, TIBC-CANDDY_MLN was added to HeLa cells as follows. […]
After electrophoresis, proteins were transferred to a PVDF membrane (Immobion™-P, Millipore) under conditions of 100 V and 2 hours using a tank-type blotting device and a transfer buffer (25 mM Tris-HCl, 195 mM glycine, 0.01% SDS, 15% methanol). […] Subsequently, the membrane was treated with a chemiluminescence reagent Immobilon™ Western (Millipore), and then chemiluminescence was detected using a lumino image analyzer LAS-3000 (FUJIFILM Corporation).
Background: In western blotting, separated proteins are transferred to a membrane and probed.

`CC(C)C[C@H](NC(=O)CNC(=O)c1cc(Cl)ccc1Cl)C(=O)NCCCCCCC(=O)Nc1ccc(C(=O)/C=C/c2ccc(I)cc2)cc1` [TIBC-CANDDY_MLN]: under “24 hours after addition”, the “amount of endogenous wild-type p53 protein” value was “the amount of the endogenous wild-type p53 protein was reduced”. Besides, the “amount of wild-type p53 protein when MLN2238 is added together” value (both TIBC-CANDDY_MLN and MLN2238 added) is recorded as “the amount of the wild-type p53 protein was increased as compared with the control (DMSO)”.
